# Values quoted from earlier work in patent US7666823B2, “Lens care solutions” (Novartis AG, priority 2005, dated 2010).
# Details: dissociation constant of the dibasic compound, aqueous
structure (smiles),measurement,value
"OCC(CO)(CO)NCCCNC(CO)(CO)CO [bis-TRIS-propane, 1,3-bis(tris[hydroxymethyl]methylamino)propane]",pKa1,6.8
same,pKa2,9.5
